# Read-outs that look alike come from different tables or passages of the source.
# What was measured:
# Type in all cases: cell-based
# Salmonella enteritidis = test: MIC against bacteria (Table I), strain (10); settings: Salmonella enterica
# Excerpt: (§1) Now, for illustrating the excellent pharmacological effects of the compounds of this invention, the values of MIC (γ/ml.) of the compounds against various bacteria are shown in Table 1, in which the compounds of this invention used are shown by example numbers.
# (10) Salmonella enteritidis
# Shigella sonnei II 37148 = test: MIC against bacteria (Table I), strain (12); settings: II37148
# Excerpt: as §1
# Staphylococcus Onuma = test: MIC against bacteria (Table I), strain (18)
# Excerpt: as §1
# (18) Staphylococcus Onuma
# [1] = system: Bacillus megatherium 10778; test: MIC against bacteria (Table I), strain (13)
# Excerpt: as §1
# Proteus vulgaris 0X 19US = test: MIC against bacteria (Table I), strain (2); settings: 0X19US
# Excerpt: as §1
# (2) Proteus vulgaris 0X 19US
# [2] = system: Staphylococcus Shimanishi; test: MIC against bacteria (Table I), strain (17)
# Excerpt: as §1
# (17) Staphylococcus Shimanishi
# Salmonella typhi H901 W = test: MIC against bacteria (Table I), strain (9); settings: Salmonella enterica, TYPHI
# Excerpt: as §1
# (9) Salmonella typhi H901 W
# [3] = system: Escherichia coli kauffmann 0-1; test: MIC against bacteria (Table I), strain (7)
# Excerpt: as §1
# (7) Escherichia coli kauffmann 0-1
# [4] = system: Staphylococcus aureus 209P; test: MIC against bacteria (Table I), strain (16)
# Excerpt: as §1
# (16) Staphylococcus aureus 209P
# [5] = system: Bacillus subtilis ATCC 6633; test: MIC against bacteria (Table I), strain (14); settings: ATCC6633
# Excerpt: as §1
# (14) Bacillus subtilis ATCC 6633
# [6] = system: Micrococcus flavus ATCC 10240; test: MIC against bacteria (Table I), strain (15); settings: ATCC10240
# Excerpt: as §1
# (15) Micrococcus flavus ATCC 10240
# [7] = system: Proteus mirabilis IXM OM-19; test: MIC against bacteria (Table I), strain (3); settings: IXMOM19
# Excerpt: as §1
# (3) Proteus mirabilis IXM OM-19
# [8] = system: Psuedomonas ovalis IMA 1002; test: MIC against bacteria (Table I), strain (6)
# Excerpt: as §1
# (6) Psuedomonas ovalis IMA 1002
# [9] = system: Pseudomonas aeruginosa 99 (Gentamycin resistant); test: MIC against bacteria (Table I), strain (5)
# Excerpt: as §1
# (5) Pseudomonas aeruginosa 99 (Gentamycin resistant)
# [10] = system: Shigella flexneri 2a 1675; test: MIC against bacteria (Table I), strain (11); settings: 2A1675
# Excerpt: as §1
# [11] = system: Klebsiella pneumoniae ATCC 10031; test: MIC against bacteria (Table I), strain (8); settings: ATCC10031
# Excerpt: as §1
# (8) Klebsiella pneumoniae ATCC 10031
# [12] = (10) Salmonella enteritidis, read-out: MIC
# [13] = (12) Shigella sonnei II 37148, read-out: MIC
# [14] = (13) Bacillus megatherium 10778, read-out: MIC
# [15] = (2) Proteus vulgaris 0X 19US, read-out: MIC
# [16] = (14) Bacillus subtilis ATCC 6633, read-out: MIC
# [17] = (3) Proteus mirabilis IXM OM-19, read-out: MIC
# [18] = (6) Psuedomonas ovalis IMA 1002, read-out: MIC
# [19] = (5) Pseudomonas aeruginosa 99 (Gentamycin resistant), read-out: MIC
# [20] = (11) Shigella flexneri 2a 1675, read-out: MIC
# [21] = (18) Staphylococcus Onuma, read-out: MIC
# [22] = (17) Staphylococcus Shimanishi, read-out: MIC
# [23] = (15) Micrococcus flavus ATCC 10240, read-out: MIC
# [24] = (8) Klebsiella pneumoniae ATCC 10031, read-out: MIC
# [25] = (7) Escherichia coli kauffmann 0-1, read-out: MIC
# [26] = (16) Staphylococcus aureus 209P, read-out: MIC
Compound,MIC (Salmonella enteritidis; [12]),MIC (Shigella sonnei II 37148; [13]),"MIC [1, 14]",MIC (Proteus vulgaris 0X 19US; [15]),MIC ([2]; Staphylococcus),MIC (Salmonella typhi H901 W),MIC ([3]; Escherichia coli),"MIC ([4]; Staphylococcus aureus, 209P)","MIC [5, 16]",MIC ([6]; Micrococcus flavus),"MIC [7, 17]","MIC [8, 18]","MIC [9, 19]","MIC [10, 20]",MIC ([11]; Klebsiella pneumoniae),MIC (Staphylococcus Onuma; [21]),"MIC [2, 22]","MIC [6, 23]","MIC [11, 24]",MIC (Salmonella enteritidis; ENTERITIDIS),also measured
"Cc1nc(SCC(=O)O)cc(SCC2=C(C(=O)O)N3C(=O)[C@@H](NC(=O)[C@H](NC(=O)c4cnccc4O)c4ccccc4)[C@H]3SC2)n1 [Example 17, 7-[D-α-(4-hydroxynicotinoylamido)-α-phenylacetamido]-3-(6-carboxymethylthio-2-methylpyrimidin-4-yl)thiomethyl-Δ^3-cephem-4-carboxylic acid]",0.19 µg/mL,6.25 µg/mL,0.39 µg/mL,1.56 µg/mL,6.25 µg/mL,3.13 µg/mL,6.25 µg/mL,0.19 µg/mL,0.39 µg/mL,6.25 µg/mL,0.19 µg/mL,25 µg/mL,50 µg/mL,3.13 µg/mL,6.25 µg/mL,,,,,,MIC (Staphylococcus Onuma; Staphylococcus): 6.25 µg/mL
"O=C(O)Cn1nc(SCC2=C(C(=O)O)N3C(=O)[C@@H](NC(=O)[C@H](NC(=O)c4cnccc4O)c4ccccc4)[C@H]3SC2)ccc1=O [Example 18, 7-[D-α-(4-hydroxynicotinoylamido)-α-phenylacetamido]-3-(1-carboxymethyl-6(1H)-pyridazinon-3-yl)thiomethyl-Δ^3-cephem-4-carboxylic acid]",1.56 µg/mL,25 µg/mL,0.39 µg/mL,1.56 µg/mL,,3.13 µg/mL,12.5 µg/mL,1.56 µg/mL,0.39 µg/mL,,0.78 µg/mL,25 µg/mL,25 µg/mL,12.5 µg/mL,,6.25 µg/mL,6.25 µg/mL,25 µg/mL,25 µg/mL,,
"Nc1nc(SCC(=O)O)cc(SCC2=C(C(=O)O)N3C(=O)[C@@H](NC(=O)[C@H](NC(=O)c4cnccc4O)c4ccccc4)[C@H]3SC2)n1 [Example 19, 7-[D-α-(4-hydroxynicotinoylamido)-α-phenylacetamido]-3-(2-amino-4-carboxymethylthiopyrimidin-6-yl)thiomethyl-Δ^3-cephem-4-carboxylic acid]",1.56 µg/mL,25 µg/mL,0.78 µg/mL,,,3.13 µg/mL,,3.13 µg/mL,0.78 µg/mL,,0.39 µg/mL,50 µg/mL,,6.25 µg/mL,25 µg/mL,12.5 µg/mL,12.5 µg/mL,12.5 µg/mL,,,"MIC (Proteus vulgaris 0X 19US; Proteus vulgaris): 6.25 µg/mL; MIC [3, 25]: 12.5 µg/mL"
"Cc1ncc(C(=O)N[C@@H](C(=O)N[C@@H]2C(=O)N3C(C(=O)O)=C(CSc4nnc(SCC(=O)O)s4)CS[C@H]23)c2ccccc2)c(O)n1 [Example 20, 7-[D-α-(4-hydroxy-2-methylpyrimidin-5-ylcarboxamido)-α-phenylacetamido]-3-(5-carboxymethylthio-1,3,4-thiadiazol-2-yl)thiomethyl-Δ^3-cephem-4-carboxylic acid]",3.13 µg/mL,12.5 µg/mL,1.56 µg/mL,< 0.09 µg/mL,12.5 µg/mL,12.5 µg/mL,12.5 µg/mL,,3.13 µg/mL,6.25 µg/mL,0.39 µg/mL,50 µg/mL,25 µg/mL,6.25 µg/mL,,,,,25 µg/mL,,"MIC (Staphylococcus Onuma; Staphylococcus): 12.5 µg/mL; MIC [4, 26]: 3.13 µg/mL"
"COc1cc(O)ncc1C(=O)N[C@@H](C(=O)N[C@@H]1C(=O)N2C(C(=O)O)=C(CSc3nnc(SCC(=O)O)s3)CS[C@H]12)c1ccccc1 [Example 28, 7-[D-α-(6-hydroxy-4-methoxynicotinoylamido)-α-phenylacetamido]-3-(5-carboxymethylthio-1,3,4-thiadiazol-2-yl)thiomethyl-Δ^3-cephem-4-carboxylic acid]",12.5 µg/mL,25 µg/mL,6.25 µg/mL,12.5 µg/mL,,50 µg/mL,25 µg/mL,,12.5 µg/mL,,6.25 µg/mL,50 µg/mL,,25 µg/mL,,100 µg/mL,100 µg/mL,12.5 µg/mL,50 µg/mL,,"MIC [4, 26]: 12.5 µg/mL; MIC ([9]; Pseudomonas aeruginosa): 25 µg/mL"
"O=C(O)CSc1nnc(SCC2=C(C(=O)O)N3C(=O)[C@@H](NC(=O)[C@H](NC(=O)c4csccc4=O)c4ccc(O)cc4)[C@H]3SC2)s1 [Example 31, 7-[D-α-(4-thiopyrone-3-carboxamido)-α-p-hydroxyphenylacetamido]-3-[5-carboxymethylthio-1,3,4-thiadiazol-2-yl]thiomethyl-Δ^3-cephem-4-carboxylic acid]",,,0.39 µg/mL,1.56 µg/mL,3.13 µg/mL,0.39 µg/mL,3.13 µg/mL,,0.39 µg/mL,3.13 µg/mL,0.39 µg/mL,50 µg/mL,50 µg/mL,,,6.25 µg/mL,,,6.25 µg/mL,0.39 µg/mL,"MIC (Shigella sonnei II 37148; Shigella sonnei): 3.13 µg/mL; MIC [4, 26]: 0.39 µg/mL; MIC ([10]; Shigella flexneri): 0.78 µg/mL"
"O=C(O)CCCc1nnc(SCC2=C(C(=O)O)N3C(=O)[C@@H](NC(=O)[C@H](NC(=O)c4cnccc4O)c4ccccc4)[C@H]3SC2)s1 [Example 35, 7-[D-α-(4-hydroxynicotinoylamido)-α-phenylacetamido]-3-[5-(3-carboxypropyl)-1,3,4-thiadiazol-2yl]-thiomethyl-Δ^3 cephem-4-carboxylic acid]",0.78 µg/mL,6.25 µg/mL,0.78 µg/mL,50 µg/mL,,1.56 µg/mL,,1.56 µg/mL,0.78 µg/mL,,0.78 µg/mL,,,1.56 µg/mL,6.25 µg/mL,12.5 µg/mL,,3.13 µg/mL,,,"MIC [3, 25]: 3.13 µg/mL; MIC [8]: 6.25 µg/mL; MIC ([9]; Pseudomonas aeruginosa): 6.25 µg/mL"
"Cc1cc(O)c(C(=O)N[C@@H](C(=O)N[C@@H]2C(=O)N3C(C(=O)O)=C(CSc4nnc(CCCC(=O)O)s4)CS[C@H]23)c2ccccc2)cn1 [Example 36, 7-[D-α-(4-hydroxy-6-methylnicotinoylamido)-α-phenylacetamido]-3-[5-(3-carboxypropyl)-1,3,4-thiadiazol-2-yl]thiomethyl-Δ^3-cephem-4-carboxylic acid]",,3.13 µg/mL,,100 µg/mL,,1.56 µg/mL,1.56 µg/mL,1.56 µg/mL,,,0.39 µg/mL,25 µg/mL,6.25 µg/mL,0.78 µg/mL,,12.5 µg/mL,,6.25 µg/mL,6.25 µg/mL,1.56 µg/mL,"MIC ([1]; Bacillus, 10778): 0.78 µg/mL; MIC ([5]; Bacillus subtilis): 1.56 µg/mL"
"COc1cc(C)ncc1C(=O)N[C@@H](C(=O)N[C@@H]1C(=O)N2C(C(=O)O)=C(CSc3nnc(SCC(=O)O)s3)CS[C@H]12)c1ccccc1 [Example 37, 7[-α-(4-methoxy-6-methylnicotinoylamido)-α-phenylacetamido]-3-(5-carboxymethyl-thio-1,3,4-thiadiazol-2yl)-thiomethyl-Δ^3-cephem-4-carboxylic acid]",,6.25 µg/mL,1.56 µg/mL,25 µg/mL,6.25 µg/mL,6.25 µg/mL,6.25 µg/mL,1.56 µg/mL,0.78 µg/mL,6.25 µg/mL,,25 µg/mL,12.5 µg/mL,3.13 µg/mL,,12.5 µg/mL,,,12.5 µg/mL,3.13 µg/mL,MIC ([7]; Proteus mirabilis): 3.13 µg/mL
"Cc1cc(O)c(C(=O)N[C@@H](C(=O)N[C@@H]2C(=O)N3C(C(=O)O)=C(CSc4nnc(CC(=O)O)s4)CS[C@H]23)c2ccccc2)cn1 [Example 38, 7-[D-α-(4-hydroxy-6-methylnicotinoylamido)-α-phenylacetamido]-3-(5-carboxymethyl-1,3,4-thiadiazol-2-yl)-thiomethyl-Δ^3-cephem-4-carboxylic acid]",,3.13 µg/mL,,,,1.56 µg/mL,3.13 µg/mL,3.13 µg/mL,,,0.78 µg/mL,50 µg/mL,12.5 µg/mL,1.56 µg/mL,,12.5 µg/mL,,12.5 µg/mL,12.5 µg/mL,1.56 µg/mL,"MIC ([1]; Bacillus, 10778): 1.56 µg/mL; MIC ([5]; Bacillus subtilis): 1.56 µg/mL"

# Source: patent publication US4068074A, “Cephalosporin derivatives having at the 3-position of the cephem ring a heterocyclic thiomethyl group with a carboxy or sulfo group and at the 7-position of the cephem ring an α-heterocylic acylaminophenyl-acetamide group” (priority 1974, dated 1978)
